Measured values from US20180064808A1, “COMBINATION THERAPY OF BISPECIFIC ANTIBODIES SPECIFIC FOR FAP AND DR5 AND CHEMOTHERAPEUTIC AGENTS” (Hoffmann-La Roche Inc., priority 2014, published 2018).

What was measured:
[1] = clinical studies; cited from earlier work
FcγR mutant mice = settings: cited from earlier work
Aspc1 = assay: Combination screen PDAC cell lines (CellTiter-Glo); format: cell-based; settings: Aspc1
Method: (§1) A panel of CRC and PDAC cell lines was assessed and combination partners of potential clinical relevance for the respective tumor indications were used for evaluation of combination effects (CRC: irinotecan, oxaliplatin, 5-FU, MDM2 inhibitor (RG7388), Bcl-2 inhibitor (ABT199); PDAC: Abraxane, Paclitaxel, Gemcitabine, Doxorubicin, MDM2i (RG7388), Bc12i (ABT199), Bortezomib, Cyclopamine, PARP inhibitor (PJ34)).
(§2) Cells were seeded (numbers vary depending on the cell line) in black 96-well microplate with clear, flat bottom and incubated overnight at 37° C. and 5% CO2. After checking the adherence/confluence of cells, the medium was removed and 100 μl of fresh medium containing the corresponding compound was added to each well. A sequential dilution series (1:4) of 8 concentrations per compound (n=3) were used. Corresponding DMSO concentration and media alone were used as controls.
(§3) After incubation for 3 days at 37° C. and 5% CO2, 100 μl per well CellTiter-Glo reagent (Promega) was added to the plate. Luminescence was measured after 30 minutes agitation at room temperature. IC50-values were calculated with XL-Fit software. Each experiment with one compound was repeated at least twice.
(§4) Cells were seeded (numbers vary depending on the cell line) in black 96-well microplate with clear, flat bottom and incubated overnight at 37° C. and 5% CO2. After checking the adherence/confluence of cells, the medium was removed and 100 μl of fresh medium containing the corresponding compound or combination was added to each well.
(§5) A sequential 1:3 dilution series of 9 concentrations of Drozitumab/anti-human-Fc was done on a 96-well PP-V-bottom microplate (n=6). […] 25 μl/well of the Drozitumab/anti-human-Fc series were then transferred to the cells.
(§6) After incubation for 3 days at 37° C. and 5% CO2 100 μl per well CellTiter-Glo reagent (Promega) were given to the plates. Luminescence was measured after 30 minutes agitation at room temperature.
(§7) For each concentration of Drozitumab/anti-human-Fc and Drozitumab/anti-human-Fc+compound triplicates were done on the same plate and each experiment was repeated at least twice.

Bxpc3 = assay: Combination screen PDAC cell lines (CellTiter-Glo); format: cell-based; settings: Bxpc3
Method: as §1, §2, §3, §4, §5, §6, §7

Capan2 = assay: Combination screen PDAC cell lines (CellTiter-Glo); format: cell-based; settings: Capan2
Method: as §1, §2, §3, §4, §5, §6, §7

Panc1 = assay: Combination screen PDAC cell lines (CellTiter-Glo); format: cell-based; settings: Panc1
Method: as §1, §2, §3, §4, §5, §6, §7

[2] = test system: LOX-IMVI desmoplastic melanoma xenograft; assay: LOX-IMVI desmoplastic melanoma cell line based xenograft model; format: in vivo, nude mice; settings: doxorubicin alone 5 mg/kg q7d
From the text: The in vivo antitumor efficacy of the bispecific antibody DR5-FAP (DR5 binder: VH SEQ ID NO.:7, VL SEQ ID NO.: 8, FAP binder: VH SEQ ID NO.:15, VL SEQ ID NO.: 16) could be detected in cell and fragment based patient derived (PDX) models of various tumor origin (e.g. CRC, pancreatic cancer, desmoplastic melanoma and sarcoma) transplanted on nude mice. As example data for combination efficacy of bispecific antibody DR5-FAP (DR5 binder: VH SEQ ID NO.:7, VL SEQ ID NO.: 8, FAP binder: VH SEQ ID NO.:15, VL SEQ ID NO.: 16) and chemotherapeutics that activate the intrinsic apoptosis pathway are shown for the CRC xenograft model DLD-1 and HCT116 (cell line based, co-injection model) and Co5896 (fragment based).
The bispecific antibody DR5-FAP (DR5 binder: VH SEQ ID NO.:7, VL SEQ ID NO.: 8, FAP binder: VH SEQ ID NO.:15, VL SEQ ID NO.: 16) was provided as stock solution from Roche, Penzberg, Germany. Antibody buffer included histidine. Antibody solution was diluted appropriately in buffer from stock prior injections. An Fc mutant of the prior art DR5 specific antibody Drozitumab was provided as stock solution from Roche, Penzberg, Germany. This antibody comprises three amino acid substitutions in the Fc domain that abolish binding to an activating or inhibitory Fc receptor and/or effector function wherein said amino acid substitutions are L234A, L235A and P329G. […]

[3] = test system: Sarc4605 sarcoma xenograft; assay: Sarc4605 sarcoma fragment based patient derived xenograft model (PDX); format: in vivo, nude mice; settings: doxorubicin alone 5 mg/kg q7d
[4] = second figure of mono/combo, n.s. = not significant

Row | Molecule | maximally tolerated dose (MTD) [1] | in vivo activity (FcγR mutant mice) | Fold change IC50 (DR5 ab mono vs combo) (Aspc1; n.s. = not significant) | % max. inhibition (combo) (Aspc1; [4]) | IC50 (Aspc1; Homo sapiens, 72 h, agent alone, 3 days, read-out: IC50 monotherapy) | % max. inhibition (mono) (Bxpc3; first figure of mono/combo) | Fold change IC50 (DR5 ab mono vs combo) (Bxpc3; n.s. = not significant) | % max. inhibition (combo) (Bxpc3; [4]) | IC50 (Bxpc3; Homo sapiens, BXPC-3, 72 h, agent alone, 3 days, read-out: IC50 monotherapy) | % max. inhibition (combo) (Capan2; [4]) | IC50 (Capan2; Homo sapiens, Capan-2, 72 h, agent alone, 3 days, read-out: IC50 monotherapy) | IC50 (Panc1; Homo sapiens, PANC-1, 72 h, agent alone, 3 days, read-out: IC50 monotherapy) | Fold change IC50 (DR5 ab mono vs combo) (Panc1; n.s. = not significant) | % max. inhibition (combo) (Panc1; [4]) | tumor growth inhibition [2] | tumor growth inhibition [3]
1 | Drozitumab: fully human DR5 agonistic antibody described in US2007/0031414 and WO 2006/083971 | > 20 mg/kg | inactive |  |  |  |  |  |  |  |  |  |  |  |  |  | 
2 | COc1cccc2c1C(=O)c1c(O)c3c(c(O)c1C2=O)C[C@@](O)(C(=O)CO)C[C@@H]3O[C@H]1C[C@H](N)[C@H](O)[C@H](C)O1 [Doxorubicin, (7S,9S)-7-[(2R,4S,5S,6S)-4-amino-5-hydroxy-6-methyloxan-2-yl]oxy-6,9,11-trihydroxy-9-(2-hydroxyacetyl)-4-methoxy-8,10-dihydro-7H-tetracene-5,12-dione] |  |  | 5 | n.s. | 0.3 µM | 25% | 2 | 70% | 4 µM | n.s. | 1.5 µM | 0.62 µM | n.s. | n.s. | 77% | 77%
